# Test results taken from paper PMC6320911, “Discovery of a Natural Syk Inhibitor from Chinese Medicine through a Docking-Based Virtual Screening and Biological Assay Study” (Molecules, 2018).
# Biological target: T1, Spleen tyrosine kinase (Syk) (Homo sapiens, UniProt P43405)
# T1 construct: Syk (ab60886)
# Assay: ADP-Glo luminescent kinase assay with dose-response ([…] ATP in substrate solution, poly Glu:Tyr […])
# Format: biochemical
compound,measurement,value
"Cc1coc2c1C(=O)C(=O)c1c-2ccc2c(C)cccc12 [compound 13, Tanshinone I]",IC50,1640 nM
